According to PMC12000251, “Evaluation of the Anti-Inflammatory Effects of Novel Fatty Acid-Binding Protein 4 Inhibitors in Microglia” (Journal of Neuroimmune Pharmacology, 2025):
“And” between values parts separate entries of the source, which are not always exact repeats. Equal values may be shown once.

What was measured:
Assay type in all cases: cell-based, mouse
BV-2 cells = experiment: MTT assay of BV-2 cell viability; details: 24 h
Protocol: BV-2 cells were cultured in DMEM/F-12 media supplemented with 10% (v/v) FBS and 1% (v/v) penicillin/streptomycin, and kept at 37 °C in a humidified incubator ([…], 5% CO2) for all studies. Cells with 80% confluency were used for experiments. At 24 h post-seeding, BV-2 cells were treated with either of the MFP compounds (at concentrations detailed below) or vehicle (0.1% (v/v) DMSO) and 1 µg/mL LPS for a period of 24 h. In some experiments (detailed in Results), BV-2 cells were exposed to MFP compounds for 2 h before a 24 h exposure to LPS and MFP compounds, and in some studies, in the presence of FABP4 siRNA using a 24 h treatment that we have previously employed (Low et al. [2021]). In brief, BV-2 cells were washed once 4 h post-seeding with blank DMEM/F-12 media. siRNA complexes (containing FABP4 siRNA, target sequence 5’-[…]-3’ or AllStar Negative Control siRNA, target sequence proprietary) were added dropwise onto the cells. siRNA complexes were prepared by mixing siRNA and HiPerfect transfection reagent together in FBS-free DMEM/F12 media and incubating for 15 min to allow the siRNA complexes to form. The cells were incubated with the siRNA complex for 5 min, after which, DMEM/F12 media containing FBS was added into each well to dilute the siRNA complexes to 5 nM.
To determine the most appropriate and tolerable concentration of MFP compounds in BV-2 cells, an MTT assay was performed. Following treatment with increasing concentrations of MFP compounds for 24 h, BV-2 cells were rinsed once with PBS prior to being incubated with 0.45 mg/mL MTT reagent for 4 h in a 37 °C, 5% CO2 incubator. After that, the MTT reagent was removed and 150 µL of DMSO was added into all wells for 30 min. The plate was then immediately read on a Perkin-Elmer Enspire fluorescence plate reader (Boston, MA) at 540 nm. Background subtraction was performed before the percentage cell viability was calculated and expressed as a ratio of mean absorbance of MFP-treated cells over mean absorbance of vehicle-treated cells.

LPS-activated BV-2 cells [1] = experiment: Extracellular nitrite (Griess assay) from LPS-activated BV-2 cells; details: 50 µM, 1 µg/mL LPS 24 h
Protocol: (§1) BV-2 cells were cultured in DMEM/F-12 media supplemented with 10% (v/v) FBS and 1% (v/v) penicillin/streptomycin, and kept at 37 °C in a humidified incubator ([…], 5% CO2) for all studies. Cells with 80% confluency were used for experiments. At 24 h post-seeding, BV-2 cells were treated with either of the MFP compounds (at concentrations detailed below) or vehicle (0.1% (v/v) DMSO) and 1 µg/mL LPS for a period of 24 h. In some experiments (detailed in Results), BV-2 cells were exposed to MFP compounds for 2 h before a 24 h exposure to LPS and MFP compounds, and in some studies, in the presence of FABP4 siRNA using a 24 h treatment that we have previously employed (Low et al. [2021]). […]
For measurement of extracellular nitrite concentrations, the Griess assay was performed as per the manufacturer’s protocol (Molecular Probes, Eugene, OR) with minor changes. […] The absorbance of the media samples was measured on a Perkin-Elmer Enspire plate reader at 548 nm, with nitrite concentrations in media samples obtained by back calculating sample absorbance values back to a standard curve prepared through serial dilution of NaNO2 prepared in media.

LPS-activated BV-2 cells [2] = experiment: RT-qPCR for TNF-α mRNA expression in LPS-activated BV-2 cells; details: 10 µM, 1 µg/mL LPS 24 h
Protocol: as §1
RT-qPCR was performed to determine the amount of TNF-α mRNA following the required cell treatments, as previously described (Low et al. [2020]). […] The concentration and purity of the isolated RNA was assessed using a Thermo Fisher Nanodrop 1000 spectrophotometer (Rockford, IL). […] The threshold cycles (Ct) were automatically calculated using the CFX manager software. […]

LPS-activated BV-2 cells [3] = experiment: TNF-α ELISA of supernatant of LPS-activated BV-2 cells
Protocol: as §1
ELISA was performed as per manufacturer’s protocol to measure the concentration of TNF-α in the supernatant in which BV-2 cells were treated. […] 100 µL of Stop solution was added into each well before the plate was immediately read on a Perkin-Elmer Enspire fluorescence plate reader at 450 nm […] and 570 nm (absorbance). Absorbance values at 570 nm were subtracted from 450 nm to account for background. TNF-α concentration was normalised to total protein count (mg), as quantified by a BCA assay, and reported as pg/mg protein.

## O=C(O)c1cccc(NS(=O)(=O)c2ccc(Cl)c(Cl)c2)c1 [MFP-0012328]
BV-2 cells; 75 µM and 100 µM of MFP-0012328, 100 µM of the other MFP compounds, range over the compounds
  fold reduction in cell viability: 0.17–0.27 fold
BV-2 cells; 2–50 µM, MTT
  BV-2 cell viability relative to vehicle control: no significant differences
LPS-activated BV-2 cells [1]
  attenuation of LPS-mediated release of nitrite: 51.3%
LPS-activated BV-2 cells [2]
  reduction of TNF-α mRNA levels relative to LPS alone: 17%
LPS-activated BV-2 cells [3]; 10 µM, 1 µg/mL LPS 24 h
  reduction in extracellular concentration of TNF-α relative to LPS-only: 25% and 24.8%
LPS-activated BV-2 cells [3]; BV-2 cells pre-treated with LPS for 4 h, then 10 µM compound
  reduction of TNF-α release vs LPS-alone: 15.7%
